Assay results from US20230067676A1, “CO-CRYSTALS AND SALTS OF 8-CHLORO-N-(4-(TRIFLUOROMETHOXY)PHENYL)QUINOLIN-2-AMINE” (ABIVAX, priority 2020, published 2023).
≈ marks a conversion by molar mass, not a printed value. Like-named read-outs stand apart in the source and are kept apart here.

Key:
[1] = Kinetic solubility in two aqueous media (FaSSIF pH 6.5 + 1% PVPVA; FeSSIF pH 5.0 + 1% PVPVA); conditions: for Solubility compared to the ABX464 crystalline Form I: FaSSIF and FeSSIF media (+ 1% PVPVA), at each time; for Kinetic solubility: room temperature, 2 mg/ml equivalent ABX464 target
Protocol: (§1) These two specific aqueous media are more particularly: • FaSSIF (namely Fasted State Simulated Intestinal Fluid) pH=6.5+1% by weight of PVPVA (polyvinyl pyrrolidone-vinyl acetate: a precipitation inhibitor); and • FeSSIF (namely Fed State Simulated Intestinal Fluid) pH=5.0+1% by weight of PVPVA (a precipitation inhibitor)
(§2) To make 5 mL of FeSSIF the steps were as follows: • weighing 56.0 mg of SIF Powder, adding 350 μl of FeSSIF Buffer Concentrate then making up to 5.0 mL with ultrapurified water; and adding 1% w/w PVPVA.

[2] = Two-steps Dissolution/Precipitation in vitro Human Fasted model (gastric then intestinal compartment); type: physicochemical; conditions: for Crystalline phase conversion as detected by XRPD: solid residues collected in the fasted Dissolution/Precipitation test
Protocol: Samples were analysed by HPLC-UV according to the following method: • Instrument: Agilent 1200 and 1100 with PDA detector • Column: Waters XTerra MS C18 3.5 μm 4.6×50 mm • Flow rate: 1.5 ml/min • UV detection: 220 nm, 270 nm, 290 nm • Column temperature: 40° C. • Injection volume: 1 μl • Mobile phase: gradient with solutions A and B prepared according to the following: • Eluent A: Ultrapurified water adjusted to pH2 with orthophosphoric acid 85% • Eluent B: Acetonitrile
The ABX464 crystalline Form I, and anhydrous ABX464 hemi-Napadisylate salt have been evaluated in the Two-steps Dissolution/Precipitation in vitro Human model.
The model consists in the following steps: • Dispensing selected material in Fasted simulated gastric medium containing 1% w PVPVA (inhibitor of precipitation) and then after 30 min, • Diluting obtained suspension by simulated Fasted intestinal medium.
Using this model, the dissolution of selected materials (ABX464 crystalline Form I, or anhydrous BX464 hemi-Napadisylate salt) in gastric medium and the risk of precipitation of the API (Active Pharmaceutical Ingredient) in intestinal compartment is evaluated.
The crystalline nature of solid residues collected by end of each steps (Gastric and Intestinal) have been determined by XRPD after centrifugation (15 min at 18000 rpm).
Protocol for Dissolution/Precipitation Model in Human Fasted Conditions • In 6 different vials, 4.0 mg equivalent ABX464 of selected material are weighed • Solubility measurement in the gastric compartment (also named G) after 15 min (G15 min) and after 30 min (G30 min) which comprises the following steps: • Adding 1 mL of FaSSGF pH 1.2 medium containing 1% w PVPVA (ABX464 target concentration=4 mg/ml) on the 6 vials, • Mixing with a vortex at 37° C. • At times 15 min and 30 min, considering one vial (vials labelled G15 min and G30 min respectively) and for each vials • noting the aspect of suspension, • centrifuging 5 min at 18000 rpm and filtering on a 0.45 μm filter (filter Millex LCR Ref. SLCR0,13NK). • Measuring the pH of supernatant, • Dosing ABX464 soluble fraction by HPLC, • Recording XPRD pattern on the final time point sample. • Solubility measurement in the intestinal compartment (also named I) after 15 min (vial I 15 min), 30 min (vial I 30 min), 60 min (vial I 60 min) and 120 min (vial I 120 min) which comprises the following steps: • Adding 1 mL of FaSSIF ×2 pH 6.5 medium/sodium bicarbonate 90/10) on the 4 remaining vials (ABX464 target concentration=2 mg/ml) • Mixing with a Vortex at 37° C. • At times 15 min, 30 min, 60 min and 120 min, considering one vial (vials labelled I 15 min, I 30 min, I 60 min and I 120 min respectively) and for each vials • noting the aspect of suspension • Centrifuging 5 min at 18000 rpm and filtering on a 0.45 μm filter (filter Millex LCR Ref. SLCR0,13NK). • Measuring the pH of supernatant • Dosing ABX464 soluble fraction by HPLC • Recording XPRD pattern on the final time point sample.
Composition and preparation of biorelevant media in Fasted conditions (see tables 11 and 12): • Fasted Gastric medium=FaSSGF pH=1.2/1% PVPVA w/v
• Fasted Intestinal medium (FaSSIF X2 pH=6.5/Sodium Bicarbonate at 80 g/l 90/10 v/v) Composition/Preparation of FaSSIF ×2 (medium concentrated 2 times to take into account the dilution in the Fasted model):
The FaSSIF X2/Sodium Bicarbonate 80 g/l (90/10; v/v) mixture was prepared to keep pH equal to 6.5 in the intestinal compartment after dilution.

[3] = physchem; conditions: thermodynamic from solid
Protocol: as §1, §2

[4] = FaSSIF pH 6.5 + 1% PVPVA, pH 6.5, aqueous with cosolvent or surfactant or cyclodextrin
[5] = FeSSIF + 1% PVPVA, pH 5, aqueous with cosolvent or surfactant or cyclodextrin
[6] = FeSSIF pH 5 + 1% PVPVA, pH 5, aqueous with cosolvent or surfactant or cyclodextrin

SMILES: FC(F)(F)Oc1ccc(Nc2ccc3cccc(Cl)c3n2)cc1.FC(F)(F)Oc1ccc(Nc2ccc3cccc(Cl)c3n2)cc1.O=S(=O)(O)c1cccc2c(S(=O)(=O)O)cccc12 [anhydrous ABX464 hemi-Napadisylate salt]
- Solubility compared to the ABX464 crystalline Form I [1]: higher solubility
- Solubility compared to the ABX464 crystalline Form I ([1]; listed as ABX464 hemi-Napadisylate salt): significant higher solubility
- Kinetic solubility ([1]; FassiF pH 6.5 + 1% PVPVA, sampling time 5 min): 70 µg/mL
- Kinetic solubility ([1]; FassiF pH 6.5 + 1% PVPVA, sampling time 30 min): 116 µg/mL
- Kinetic solubility ([1]; FassiF pH 6.5 + 1% PVPVA, sampling time 2 h): 149 µg/mL
- Kinetic solubility ([1]; FassiF pH 6.5 + 1% PVPVA, sampling time 4 h): 206 µg/mL
- Kinetic solubility ([1]; FassiF pH 6.5 + 1% PVPVA, sampling time 24 h): 432 µg/mL
- Solubility, plateau ([1]; FeSSIF + 1% PVPVA medium, at 2 h): ~1050 µg/mL
- solubility ([1]; FeSSIF + 1% PVPVA medium, at 24 h): ~1520 µg/mL
- Kinetic solubility ([1]; FessiF pH 5 + 1% PVPVA, sampling time 5 min): 396 µg/mL
- Kinetic solubility ([1]; FessiF pH 5 + 1% PVPVA, sampling time 30 min): 782 µg/mL
- Kinetic solubility ([1]; FessiF pH 5 + 1% PVPVA, sampling time 2 h): 1053 µg/mL
- Kinetic solubility ([1]; FessiF pH 5 + 1% PVPVA, sampling time 4 h): 1055 µg/mL
- Kinetic solubility ([1]; FessiF pH 5 + 1% PVPVA, sampling time 24 h): 1517 µg/mL
- Soluble fraction ([2]; gastric compartment, vial G 15 min, FaSSGF pH 1.2 + 1% PVPVA, 37° C., target about 4 mg/ml): 0.05 mg/mL
- Soluble fraction ([2]; gastric compartment, vial G 30 min, FaSSGF pH 1.2 + 1% PVPVA, 37° C., target about 4 mg/ml): 0.06 mg/mL
- Solubility (ABX464 soluble fraction) in the intestinal compartment ([2]; intestinal compartment at pH 6.5 of the fasted human in vitro model): ~430 µg/mL
- Soluble fraction ([2]; intestinal compartment, vial I 15 min (45 min total), FaSSIF x2 pH 6.5/sodium bicarbonate 90/10 added, 37° C., target about 2 mg/ml): 0.17 mg/mL
- Soluble fraction ([2]; intestinal compartment, vial I 30 min (60 min total), FaSSIF x2 pH 6.5/sodium bicarbonate 90/10 added, 37° C., target about 2 mg/ml): 0.23 mg/mL
- Soluble fraction ([2]; intestinal compartment, vial I 60 min (90 min total), FaSSIF x2 pH 6.5/sodium bicarbonate 90/10 added, 37° C., target about 2 mg/ml): 0.32 mg/mL
- Soluble fraction ([2]; intestinal compartment, vial I 120 min (150 min total), FaSSIF x2 pH 6.5/sodium bicarbonate 90/10 added, 37° C., target about 2 mg/ml): 0.43 mg/mL
- Crystalline phase conversion as detected by XRPD ([2]; intestinal compartment): no crystalline phase conversion

SMILES: FC(F)(F)Oc1ccc(Nc2ccc3cccc(Cl)c3n2)cc1 [ABX464 crystalline Form I, 8-chloro-N-(4-(trifluoromethoxy)phenyl)quinolin-2-amine]
- solubility kinetic at 5 min [3, 4]: 6 µg/mL
- solubility kinetic at 30 min [3, 4]: 22 µg/mL
- solubility kinetic at 2 h [3, 4]: 47 µg/mL
- solubility kinetic at 4 h [3, 4]: 62 µg/mL
- solubility kinetic at 24 h [3, 4]: 72 µg/mL
- solubility at 2 h [3, 5]: ~300 µg/mL
- solubility at 24 h [3, 5]: ~420 µg/mL
- solubility kinetic at 5 min [3, 6]: 54 µg/mL
- solubility kinetic at 30 min [3, 6]: 153 µg/mL
- solubility kinetic at 2 h [3, 6]: 297 µg/mL
- solubility kinetic at 4 h [3, 6]: 358 µg/mL
- solubility kinetic at 24 h [3, 6]: 419 µg/mL
- solubility at 15 min ([2]; 37 °C, pH 1.2, fassgf or other biorelevant, thermodynamic from solid, gastric compartment, vial G 15 min, FaSSGF pH 1.2 + 1% PVPVA, 37° C., target about 4 mg/ml, read-out: Soluble fraction): 60 µg/mL
- solubility at 30 min ([2]; 37 °C, pH 1.2, fassgf or other biorelevant, thermodynamic from solid, gastric compartment, vial G 30 min, FaSSGF pH 1.2 + 1% PVPVA, 37° C., target about 4 mg/ml, read-out: Soluble fraction): 70 µg/mL
- solubility ([2]; 37 °C, pH 6.5, fassif, thermodynamic from solid, intestinal compartment at pH 6.5 of the fasted human in vitro model, read-out: Solubility (ABX464 soluble fraction) in the intestinal compartment): ~80 µg/mL (≈ 236 µM)
- solubility at 15 min ([2]; 37 °C, pH 6.5, fassif, thermodynamic from solid, intestinal compartment, vial I 15 min (45 min total), FaSSIF x2 pH 6.5/sodium bicarbonate 90/10 added, 37° C., target about 2 mg/ml, read-out: Soluble fraction): 60 µg/mL (≈ 177 µM)
- solubility at 30 min ([2]; 37 °C, pH 6.5, fassif, thermodynamic from solid, intestinal compartment, vial I 30 min (60 min total), FaSSIF x2 pH 6.5/sodium bicarbonate 90/10 added, 37° C., target about 2 mg/ml, read-out: Soluble fraction): 70 µg/mL (≈ 207 µM)
- solubility at 60 min ([2]; 37 °C, pH 6.5, fassif, thermodynamic from solid, intestinal compartment, vial I 60 min (90 min total), FaSSIF x2 pH 6.5/sodium bicarbonate 90/10 added, 37° C., target about 2 mg/ml, read-out: Soluble fraction): 70 µg/mL (≈ 207 µM)
- solubility at 120 min ([2]; 37 °C, pH 6.5, fassif, thermodynamic from solid, intestinal compartment, vial I 120 min (150 min total), FaSSIF x2 pH 6.5/sodium bicarbonate 90/10 added, 37° C., target about 2 mg/ml, read-out: Soluble fraction): 80 µg/mL (≈ 236 µM)
- Crystalline phase conversion as detected by XRPD ([2]; intestinal compartment): no crystalline phase conversion
